# Measured values published in PubChem BioAssay (NCI).
#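 Where inhibition never reached the appropriate level, the endpoint shown equals the highest concentration tested. Otherwise, values were interpolated linearly from a five-concentration, 48-hour dose response in 96-well plates. TGI: total growth inhibition.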
# What was measured:
# Test in all cases: NCI tumour cell line growth inhibition, 48 h
# [1] = tested on: HOP-92 NSCLC
# [2] = tested on: K-562 leukemia
# [3] = tested on: OVCAR-4 ovarian
# [4] = tested on: EKVX NSCLC
# [5] = tested on: KM12 colon
# [6] = tested on: HCT-116 colon
# [7] = tested on: NCI-H226 lung
# [8] = tested on: SNB-75 CNS
# [9] = tested on: SK-MEL-5 melanoma
# [10] = tested on: HT29 colon
# [11] = tested on: HCT-15 colon
# [12] = tested on: A498 renal
# [13] = tested on: SW-620 colon
# [14] = tested on: HOP-62 NSCLC
# [15] = tested on: DLD-1 colon
# [16] = tested on: NCI/ADR-RES ovarian
# [17] = tested on: IGROV1 ovarian
# [18] = tested on: A549 NSCLC
# [19] = tested on: P388/ADR leukemia
# [20] = tested on: MALME-3M melanoma
# [21] = tested on: SNB-78 CNS
# [22] = tested on: LOX IMVI melanoma
# [23] = tested on: XF 498 CNS
# [24] = tested on: COLO 205 colon
# [25] = tested on: SN12K1 renal
# [26] = tested on: DMS 114 small cell lung
# [27] = tested on: UACC-257 melanoma
# [28] = tested on: MCF7 breast
# [29] = tested on: SK-OV-3 ovarian
# [30] = tested on: M19-MEL melanoma
# [31] = tested on: P388 leukemia
# [32] = tested on: MOLT-4 leukemia
# [33] = tested on: SF-295 CNS
# [34] = tested on: KM20L2 colon
# [35] = tested on: RXF 393 renal
# [36] = tested on: OVCAR-5 ovarian
# [37] = tested on: NCI-H460 lung
# [38] = tested on: OVCAR-8 ovarian
# [39] = tested on: UO-31 renal
# [40] = tested on: OVCAR-3 ovarian
# [41] = tested on: HL-60(TB) leukemia
# [42] = tested on: NCI-H23 lung
# [43] = tested on: U251 CNS
# [44] = tested on: DMS 273 small cell lung
# [45] = tested on: SF-539 CNS
# [46] = tested on: CAKI-1 renal
# [47] = tested on: NCI-H522 lung
# [48] = tested on: UACC-62 melanoma
# [49] = tested on: SF-268 CNS
# [50] = tested on: SK-MEL-2 melanoma
# [51] = tested on: SNB-19 CNS
# [52] = tested on: HCC-2998 colon
# [53] = tested on: HOP-18 NSCLC
# [54] = tested on: SN12C renal
# [55] = tested on: RPMI-8226 leukemia
# [56] = tested on: CCRF-CEM leukemia
# [57] = tested on: SK-MEL-28 melanoma
smiles,measurement,setting,value
Oc1c(CNCCCN2CCCC2)cc(Cl)c2cccnc12,TGI,[1],33.7 µM
same,TGI,[2],7.38 µM
same,TGI,[3],16.9 µM
same,TGI,[4],12.4 µM
same,TGI,[5],28.8 µM
same,TGI,[6],12.8 µM
same,TGI,[7],19.2 µM
same,TGI,[8],36.3 µM
same,TGI,[9],5.77 µM
same,TGI,[10],17.3 µM
same,TGI,[11],16.2 µM
same,TGI,[12],29.9 µM
same,TGI,[13],17.1 µM
same,TGI,[14],7.24 µM
same,TGI,[15],15 µM
same,TGI,[16],7.68 µM
same,TGI,[17],20.7 µM
same,TGI,[18],11.3 µM
same,TGI,[19],6.32 µM
same,TGI,[20],17.4 µM
same,TGI,[21],33.5 µM
same,TGI,[22],15.3 µM
same,TGI,[23],15.2 µM
same,TGI,[24],15.2 µM
same,TGI,[25],4.1 µM
same,TGI,[26],9.24 µM
same,TGI,[27],24.2 µM
same,TGI,[28],15.9 µM
same,TGI,[29],15 µM
same,TGI,[30],9.61 µM
same,TGI,[31],9.18 µM
same,TGI,[32],11.7 µM
same,TGI,[33],5.49 µM
same,TGI,[34],14.4 µM
same,TGI,[35],25.2 µM
same,TGI,[36],8.37 µM
same,TGI,[37],10.6 µM
same,TGI,[38],15.7 µM
same,TGI,[39],21.3 µM
same,TGI,[40],11.9 µM
same,TGI,[41],5.91 µM
same,TGI,[42],23.9 µM
same,TGI,[43],17 µM
same,TGI,[44],10.4 µM
same,TGI,[45],10.1 µM
same,TGI,[46],12.5 µM
same,TGI,[47],12.4 µM
same,TGI,[48],5.79 µM
same,TGI,[49],18.4 µM
same,TGI,[50],26.2 µM
same,TGI,[51],> 100 µM
same,TGI,[52],10.2 µM
same,TGI,[53],20.6 µM
same,TGI,[54],24.6 µM
same,TGI,[55],16.3 µM
same,TGI,[56],13.6 µM
same,TGI,[57],23.6 µM
